From patent US8642012B2, “Methods of treatment using ammonia-scavenging drugs” (Hyperion Therapeutics, Inc., priority 2008, dated 2014)
Entries after “also recorded” stand apart in the source; their conditions may differ.

How the values were obtained:
[1] = healthy adults; single dose; urine collected to 24 hours
[2] = ADME study of radio labeled sodium PBA or HPN-100 in cynomolgous monkeys; format: in vivo; details: 600 mg/kg single dose
From the text: These monkeys were chosen because, like humans (and unlike most other species), they metabolize PAA to PAGN and thus provide a useful model for testing prodrugs of PAA.

[3] = Adult UCD patients, sodium PBA vs HPN-100: urinary PAGN excretion; format: in vivo, human; details: for PAGN excretion: equimolar rates (n=10)
From the text: (§1) Subjects stayed on the 100% HPN-100 dose for one week and were then re-admitted to the study unit for repeated PK (Visit 11-1), ammonia and urine collections.

[4] = Single dose PK in healthy adults: plasma PBA, PAA, PAGN; format: in vivo, human; details: healthy volunteers, single dose 3 g/m^2/day PBA mole equivalent
Procedure: To assess its pharmacokinetic (PK) and pharmacodynamic (PD) profile, HPN-100 was administered as a single dose to 24 healthy adults. Pharmacokinetic samples were taken pre-dose and at 15 and 30 minutes post-dose and 1, 1.5, 2, 3, 4, 6, 8, 12, 24, and 48 hours post-dose.
Plasma levels of PAA, PBA, and PAGN were monitored periodically for 12-24 hours by known methods.

venous ammonia = experiment: Adult UCD patients, sodium PBA vs HPN-100: venous ammonia pharmacodynamics; format: in vivo, human; details: for Venous ammonia Cmaxss, Mean / Venous ammonia Cmaxss, Median / Venous ammonia TN-AUC, Mean / Venous ammonia TN-AUC, Median: N 10 UCD subjects; for Venous ammonia Cmaxss, Mean / Venous ammonia Cmaxss, Median / Venous ammonia TN-AUC, Mean / Venous ammonia TN-AUC, Median / Venous ammonia Cmaxss / Venous ammonia TN-AUC: seven days of dosing, steady state; for TN-AUC (NH3): plasma ammonia; for NH3: Total AUC / NH3 exposure: DAY (hours 6-12) / NH3 exposure: NIGHT (hours 12-24) / NH3 Cmax: equimolar rates (n=10); for NH3 Cmax: in µmol/L
From the text: as §1

[5] = Overall findings across the clinical studies (conversion to urinary PAGN, tolerability); format: in vivo, human
From the text: These are followed by a biological explanation for the findings.

[6] = Adult UCD patients, sodium PBA vs HPN-100: safety and patient preference; format: in vivo, human; details: UCD patients (n=10)
From the text: as §1

[7] = Adult UCD patients switched from sodium PBA to equimolar HPN-100: plasma PK at steady state; format: in vivo, human
From the text: as §1

[8] = individual UCD patients; Brusilow 1991, Brusilow and Finkelstien 1993; cited from earlier work
[9] = PK/PD modeling (NONMEM VI) of plasma and urinary metabolite data from the clinical studies; parameters: species or system human
From the text: Since hepatocytes and possibly enterocytes contain the enzymes necessary for conversion of PBA to PAA and conversion of PAA to PAGN and since glutamine is present in the splanchnic as well as the systemic circulation, it is likely that PBA can be converted to PAGN prior to reaching the systemic circulation (i.e. “pre-systemically”) and that this PBA is fully effective with respect to ammonia scavenging (FIG. 6); i.e. fully active. To verify this possibility, PK/PD modeling using NONMEM VI (Icon, Ellicot City, Md.) was carried out on plasma and urinary metabolite data (over 5000 data points) from the clinical studies described above involving healthy adults, subjects with cirrhosis and UCD subjects.

[10] = HPN-100 in subjects with cirrhosis (Child-Pugh A, B, C) and healthy adults: plasma PK; format: in vivo, human
Procedure: (§2) To determine its pharmacokinetic (PK) and pharmacodynamic (PD) profile in patients with liver disease, clinical testing was conducted in which HPN-100 was administered orally as a single dose (100 mg/kg/day on day 1), and twice daily for 7 consecutive days (200 mg/kg/day on days 8 through 14, in two doses of 100 mg/kg per dose), to subjects with hepatic impairment with cirrhosis (Child-Pugh scores of A, B, or C) and to a gender and age-matched control group of healthy adults with normal hepatic function. On day 15, subjects received a single dose of HPN-100 (100 mg/kg). PK blood samples were taken pre-dose, at 15 and 30 minutes post-dose, and at 1, 1.5, 2, 3, 4, 6, 8, 12, and 24 hours post-dose on days 1, 8, and 15, and at 48 hours after dosing on days 1 and 15. On days 9-14, blood samples were taken pre-morning dose and at 2 hours post-morning dose. Urine was collected 0-4, 4-8, 8-12, and 12-24 hours post-dose on days 1, 8, and 15, and at 24-48 hours post-dose on days 1 and 15.

[11] = HPN-100 in subjects with cirrhosis and healthy adults: urinary PAGN excretion; format: in vivo, human; details: for Molar % of dose ammonia scavenged, Mean (SD): after dosing on day 15 (0-48 hours)
Procedure: as §2

[12] = UCD patients, equimolar dosages
[13] = plasma, UCD subjects, multiple dose, PBA mole equivalent
[14] = steady state, UCD patients N = 10, arithmetic mean
[15] = UCD patients, not statistically significant

With `O=C([O-])CCCc1ccccc1.[Na+]` [Sodium PBA, sodium phenylbutyrate] the “Urinary excretion of PAGN” value [1] was 4905 ± 1414 mg, the “Unchanged PBA as share of the administered dosage” value ([2]; excreted) was 48% and the “PAGN as share of the administered radio labeled dose” value ([2]; urine) was 23%. For the same compound, the “Urine collection interval with highest PAGN output” value ([3]; 24 hour pattern) was 6 to 12 h, the “Conversion into urinary PAGN” value ([3]; average) was about 60% and the PAGN excretion [3] was “Comparable”. For the same compound, the “Mean PAGN amount excreted, 0-6 hours” value ([3]; urine) was 2,452,838 μg, the “Mean PAGN amount excreted, 0-12 hours” value ([3]; urine) was 4,859,121 μg and the “Mean PAGN amount excreted, 12-24 hours” value ([3]; urine) was 4,645,447 μg. For the same compound, the “PBA AUC24” value [4] was 542.6 µg·h/mL, the “PBA Cmax” value [4] was 221.0 µg/mL and the “PBA Tmax” value [4] was 54 min. The “PBA T½” value [4] was 42 min, the “Venous ammonia Cmaxss, Mean” value (venous ammonia) was 79.1 µmol/L and the “Venous ammonia Cmaxss, Median” value (venous ammonia) was 83.6 µmol/L. The “Venous ammonia TN-AUC, Mean” value (venous ammonia) was 38.4 µmol/L, the “Venous ammonia TN-AUC, Median” value (venous ammonia) was 36.8 µmol/L and the “Venous ammonia Cmaxss” value (venous ammonia; Subject 1001) was 29.0 µmol/L. For the same compound, the “Venous ammonia TN-AUC” value (venous ammonia; Subject 1001) was 16.47 µmol/L, the “Venous ammonia Cmaxss” value (venous ammonia; Subject 1002) was 31.0 µmol/L and the “Venous ammonia TN-AUC” value (venous ammonia; Subject 1002) was 20.9 µmol/L. The “Venous ammonia Cmaxss” value (venous ammonia; Subject 1004) was 85.0 µmol/L, the “Venous ammonia TN-AUC” value (venous ammonia; Subject 1004) was 46.8 µmol/L and the “Venous ammonia Cmaxss” value (venous ammonia; Subject 1006) was 150 µmol/L. For the same compound, the “Venous ammonia TN-AUC” value (venous ammonia; Subject 1006) was 71.5 µmol/L, the “Venous ammonia Cmaxss” value (venous ammonia; Subject 2001) was 88.0 µmol/L and the “Venous ammonia TN-AUC” value (venous ammonia; Subject 2001) was 52.1 µmol/L. The “Venous ammonia Cmaxss” value (venous ammonia; Subject 2003) was 31.0 µmol/L, the “Venous ammonia TN-AUC” value (venous ammonia; Subject 2003) was 17.5 µmol/L and the “Venous ammonia Cmaxss” value (venous ammonia; Subject 3002) was 108 µmol/L. For the same compound, the “Venous ammonia TN-AUC” value (venous ammonia; Subject 3002) was 22.3 µmol/L, the “Venous ammonia Cmaxss” value (venous ammonia; Subject 3004) was 115 µmol/L and the “Venous ammonia TN-AUC” value (venous ammonia; Subject 3004) was 62.9 µmol/L. The “Venous ammonia Cmaxss” value (venous ammonia; Subject 5001) was 82.2 µmol/L, the “Venous ammonia TN-AUC” value (venous ammonia; Subject 5001) was 35.8 µmol/L and the “Venous ammonia Cmaxss” value (venous ammonia; Subject 5002) was 72.2 µmol/L. The “Venous ammonia TN-AUC” value (venous ammonia; Subject 5002) was 37.7 µmol/L, the “Mean percentage of normal ammonia values” (venous ammonia; UCD patients) was 58% and the “Peak venous ammonia concentration” value (venous ammonia; UCD patients) was 79.1 µmol/L. The “Venous ammonia mean TN-AUC” value (venous ammonia; UCD patients) was 38.4 µmol/L, the TN-AUC (NH3) (venous ammonia; [12]) was 38.4 µM and the “NH3: Total AUC” value (venous ammonia; UCD patients) was 38.4 ± 19.6. The “NH3 exposure: DAY (hours 6-12)” value (venous ammonia; UCD patients) was 37.1, the “NH3 exposure: NIGHT (hours 12-24)” value (venous ammonia; UCD patients) was 36.3 and the “NH3 Cmax” value (venous ammonia; UCD patients) was 79.1 ± 40.1. For the same compound, the “Conversion into urinary PAGN, overall efficiency on average” value ([5]; oral, typical/average across clinical studies) was 60-75%, the “Adverse effects, number of subjects reporting” value [6] was 7 and the “Adverse effects, total number reported” value [6] was 21. The Serious adverse effects [6] was 2 (symptomatic, the Serious adverse effects ([6]; listed as PBA) was “two subjects” and the “AUC (PBA)” value [7, 12] was 739 (49) μg-hr/mL. For the same compound, the “PBA AUC24” value [7, 13] was 739.0 µg·h/mL, the “PBA Cmax” value [7, 13] was 141.0 µg/mL and the “PBA Tmax” value [7, 13] was 126 min. For the same compound, the “PAA in plasma Cmaxss” value [7, 14] was 53.0 µg/mL, the “PAA in plasma Cminss” value [7, 14] was 3.56 µg/mL and the “PAGN in plasma Cmaxss” value [7, 14] was 83.3 µg/mL. The “PAGN in plasma Cminss” value [7, 14] was 16.8 µg/mL, the “PBA in plasma AUC0-24” value [7, 14] was 739 µg·h/mL and the “PBA in plasma Cmaxss” value [7, 14] was 141 µg/mL. For the same compound, the “PBA in plasma Cminss” value [7, 14] was 0.588 µg/mL, the “Fraction excreted in the urine as PAGN” value [8] was 80-90% and the Absorption rate constant [9] was 1.34 h⁻¹. For the same compound, the “Fraction of PBA converted pre-systemically (to PAA and PAGN)” value [9] was 1%.

In the case of `O=C(CCCc1ccccc1)OCC(COC(=O)CCCc1ccccc1)OC(=O)CCCc1ccccc1` [HPN-100, glyceryl tri-[4-phenylbutyrate]], the “PK and PD in fed versus fasted state” value ([10]; after fasting (day 1) vs with a meal (day 8)) is reported as “no PK or PD differences; also recorded: indistinguishable”, the “Alternative metabolites PAG, PBG and PBGN in plasma” value ([10]; all plasma samples, all subject groups) is reported as “below the limit of quantification” and the “Intact HPN-100 in systemic circulation or in excretions” value [2] is reported as “essentially no HPN-100”. The PAGN excretion [3] was “Comparable”, the “Venous ammonia Cmaxss, Mean” value (venous ammonia) was 56.3 µmol/L and the “Venous ammonia Cmaxss, Median” value (venous ammonia) was 60.0 µmol/L. The “Venous ammonia TN-AUC, Mean” value (venous ammonia) was 26.1 µmol/L, the “Venous ammonia TN-AUC, Median” value (venous ammonia) was 22.3 µmol/L and the “Venous ammonia Cmaxss” value (venous ammonia; Subject 1001) was 63.0 µmol/L. The “Venous ammonia TN-AUC” value (venous ammonia; Subject 1001) was 19.8 µmol/L, the “Venous ammonia Cmaxss” value (venous ammonia; Subject 1002) was 31.0 µmol/L and the “Venous ammonia TN-AUC” value (venous ammonia; Subject 1002) was 19.3 µmol/L. The “Venous ammonia Cmaxss” value (venous ammonia; Subject 1004) was 106 µmol/L, the “Venous ammonia TN-AUC” value (venous ammonia; Subject 1004) was 35.1 µmol/L and the “Venous ammonia Cmaxss” value (venous ammonia; Subject 1006) was 13.0 µmol/L. For the same compound, the “Venous ammonia TN-AUC” value (venous ammonia; Subject 1006) was 8.30 µmol/L, the “Venous ammonia Cmaxss” value (venous ammonia; Subject 2001) was 33.0 µmol/L and the “Venous ammonia TN-AUC” value (venous ammonia; Subject 2001) was 22.7 µmol/L. For the same compound, the “Venous ammonia Cmaxss” value (venous ammonia; Subject 2003) was 74.0 µmol/L, the “Venous ammonia TN-AUC” value (venous ammonia; Subject 2003) was 21.1 µmol/L and the “Venous ammonia Cmaxss” value (venous ammonia; Subject 3002) was 36.0 µmol/L. For the same compound, the “Venous ammonia TN-AUC” value (venous ammonia; Subject 3002) was 21.9 µmol/L, the “Venous ammonia Cmaxss” value (venous ammonia; Subject 3004) was 75.0 µmol/L and the “Venous ammonia TN-AUC” value (venous ammonia; Subject 3004) was 38.4 µmol/L. For the same compound, the “Venous ammonia Cmaxss” value (venous ammonia; Subject 5001) was 57.0 µmol/L, the “Venous ammonia TN-AUC” value (venous ammonia; Subject 5001) was 35.5 µmol/L and the “Venous ammonia Cmaxss” value (venous ammonia; Subject 5002) was 75.2 µmol/L. For the same compound, the “Venous ammonia TN-AUC” value (venous ammonia; Subject 5002) was 39.1 µmol/L, the “Mean percentage of normal ammonia values” (venous ammonia; UCD patients) was 83% and the “Peak venous ammonia concentration” value (venous ammonia; UCD patients) was 56.3 µmol/L. For the same compound, the “Venous ammonia mean TN-AUC” value (venous ammonia; UCD patients) was 26.1 µmol/L, the “Ammonia level reached in patients above about 40 μmol/L on sodium PBA” value (venous ammonia; UCD patients, equimolar dosages, FIG. 12) was “below 40 μmol/L” and the TN-AUC (NH3) (venous ammonia; [12]) was 26.1 µM. The “NH3: Total AUC” value (venous ammonia; UCD patients) was 26.1 ± 10.3, the “NH3 exposure: DAY (hours 6-12)” value (venous ammonia; UCD patients) was 32.9 and the “NH3 exposure: NIGHT (hours 12-24)” value (venous ammonia; UCD patients) was 21.3. For the same compound, the “NH3 Cmax” value (venous ammonia; UCD patients) was 56.3 ± 27.9, the “Peak venous ammonia, lowering versus sodium PBA” value (venous ammonia; [15]) was about 29% and the “Venous ammonia TN-AUC, lowering versus sodium PBA” value (venous ammonia; [15]) was about 31%. For the same compound, the Indications of toxicity ([5]; at doses equimolar to the approved PBA dosage of 20 g/day) was “no indications of toxicity”, the “Dietary protein whose waste nitrogen is eliminated per gram of drug per day” value ([5]; given 60-75% conversion rate) was about 1.3 grams and the “Effect on creatinine levels” value ([5]; human, in vivo) was “little to no effect”. The “Relationship between dose and PAGN output” value ([5]; up to doses of 17.4 mL) was “linear relationship”, the “Adverse effects, number of subjects reporting” value [6] was 5 and the “Adverse effects, total number reported” value [6] was 15. The “Intact HPN-100 in blood samples” value ([7]; UCD patients, all blood samples) was “either not detectable or below the limits of quantitation”, the “Effect of hepatic impairment on ammonia-scavenging ability” value ([11]; Child-Pugh groups vs healthy volunteers) was “no significant effect” and the “Molar % of dose ammonia scavenged, Mean (SD)” value (“Molar % … (SD)” for short) ([11]; Child-Pugh A (8)) was 159.2 (60.9) Molar %. For the same compound, the “Molar % … (SD)” value ([11]; Child-Pugh B (8)) was 116.3 (58.3) Molar %, the “Molar % … (SD)” value ([11]; Child-Pugh C (8)) was 169.9 (130.1) Molar % and the “Molar % … (SD)” value ([11]; Healthy Adults (8)) was 137.2 (43.9) Molar %.
